Results published in patent US9447038B2 (SANOFI, priority 2012, dated 2016).
Structures can show the parent of a compound that is named as a salt.

The compounds below were run against human CXCR3-A receptor (Homo sapiens (Human), UniProt P49682) (assay: 125I-CXCL10 competition radioligand binding assay). Conditions: displacement of 125I-CXCL10 from membranes of CHO cells expressing human recombinant CXCR3-A.
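Note: One-hour incubation of membranes with tracer, bound radioligand separated by glass fibre filtration, IC50 derived from four-parameter nonlinear fit of competition curves.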

Sequence of human CXCR3-A receptor (P49682 whole entry): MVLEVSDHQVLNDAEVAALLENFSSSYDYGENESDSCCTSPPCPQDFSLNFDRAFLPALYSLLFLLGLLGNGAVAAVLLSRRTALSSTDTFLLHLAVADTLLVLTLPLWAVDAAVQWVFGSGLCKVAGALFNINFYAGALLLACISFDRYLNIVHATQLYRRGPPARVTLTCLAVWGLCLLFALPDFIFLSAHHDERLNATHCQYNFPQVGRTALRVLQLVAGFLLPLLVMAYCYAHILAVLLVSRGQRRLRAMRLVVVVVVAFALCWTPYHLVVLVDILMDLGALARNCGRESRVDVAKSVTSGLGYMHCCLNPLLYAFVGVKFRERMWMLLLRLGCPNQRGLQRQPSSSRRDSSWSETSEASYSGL

Row | IC50 [nM] | Structure (SMILES)
1 | 130 | CCc1cc(CN(CC(C)C)C(CC(=O)O)c2ccc(Cl)c(Cl)c2)ccc1OCCN1C(=O)CCC1=O (stereo not drawn) [Example 98, 3-(3,4-Dichloro-phenyl)-3-({4-[2-(2,5-dioxo-pyrrolidin-1-yl)-ethoxy]-3-ethyl-benzyl}-isobutyl-amino)-propionic acid]
2 | 120 | CCCCN(Cc1ccc(OCCN2C(=O)CCC2=O)c(CC)c1)C(CC(=O)O)c1ccc(Cl)c(Cl)c1 (stereo not drawn) [Example 99, 3-(Butyl-{4-[2-(2,5-dioxo-pyrrolidin-1-yl)-ethoxy]-3-ethyl-benzyl}-amino)-3-(3,4-dichloro-phenyl)-propionic acid]
3 | 464 | CCc1cc(CN(CC2CCCC2)C(CC(=O)O)c2ccc(Cl)c(Cl)c2)ccc1OCCN1C(=O)CCC1=O (stereo not drawn) [Example 100, 3-(Cyclopentylmethyl-{4-[2-(2,5-dioxo-pyrrolidin-1-yl)-ethoxy]-3-ethyl-benzyl}-amino)-3-(3,4-dichloro-phenyl)-propionic acid]
4 | 292 | CCc1cc(CN(CC2CCCCC2)C(CC(=O)O)c2ccc(Cl)c(Cl)c2)ccc1OCCN1C(=O)CCC1=O (stereo not drawn) [Example 101, 3-(Cyclohexylmethyl-{4-[2-(2,5-dioxo-pyrrolidin-1-yl)-ethoxy]-3-ethyl-benzyl}-amino)-3-(3,4-dichloro-phenyl)-propionic acid]
5 | 83 | O=C(O)CC(c1ccc(Cl)cc1)N(Cc1ccc(OCCN2C(=O)CCC2=O)c(Cl)c1)CC1CC1 (stereo not drawn) [Example 102, 3-({3-Chloro-4-[2-(2,5-dioxo-pyrrolidin-1-yl)-ethoxy]-benzyl}-cyclopropylmethyl-amino)-3-(4-chloro-phenyl)-propionic acid; hydrochloride]
6 | 170 | CCCN(Cc1ccc(OCCN2C(=O)CCC2=O)c(Cl)c1)C(CC(=O)O)c1ccc(Cl)cc1 (stereo not drawn) [Example 103, 3-({3-Chloro-4-[2-(2,5-dioxo-pyrrolidin-1-yl)-ethoxy]-benzyl}-propyl-amino)-3-(4-chloro-phenyl)-propionic acid]
7 | 145 | O=C(O)C[C@@H](c1ccc(Cl)cc1)N(Cc1ccc(OCCN2C(=O)CCC2=O)c(Cl)c1)CC1CCC1 [Example 104, (S)-3-({3-Chloro-4-[2-(2,5-dioxo-pyrrolidin-1-yl)-ethoxy]-benzyl}-cyclobutylmethyl-amino)-3-(4-chloro-phenyl)-propionic acid]
8 | 211 | CCCN(Cc1ccc(OCCN2C(=O)CCC2=O)c(Cl)c1)C(CC(=O)O)c1ccc(Cl)c(F)c1 (stereo not drawn) [Example 105, 3-({3-Chloro-4-[2-(2,5-dioxo-pyrrolidin-1-yl)-ethoxy]-benzyl}-propyl-amino)-3-(4-chloro-3-fluoro-phenyl)-propionic acid]
9 | 223 | O=C(O)CC(c1ccc(Cl)c(Cl)c1)N(Cc1ccc(OCCN2C(=O)CCC2=O)c(Cl)c1)CC1CC1 (stereo not drawn) [Example 106, 3-({3-Chloro-4-[2-(2,5-dioxo-pyrrolidin-1-yl)-ethoxy]-benzyl}-cyclopropylmethyl-amino)-3-(3,4-dichloro-phenyl)-propionic acid; hydrochloride]
10 | 570 | CCCN(Cc1ccc(OCCN2C(=O)CCC2=O)c(Cl)c1)C(CC(=O)O)c1ccc(Cl)c(Cl)c1 (stereo not drawn) [Example 107, 3-({3-Chloro-4-[2-(2,5-dioxo-pyrrolidin-1-yl)-ethoxy]-benzyl}-propyl-amino)-3-(3,4-dichloro-phenyl)-propionic acid]
11 | 200 | COc1cc(CN(CC2CC2)[C@H](C(=O)O)c2ccc(Cl)c(Cl)c2)ccc1OCCN1C(=O)CCC1=O [Example 108, (S)-(Cyclopropylmethyl-{4-[2-(2,5-dioxo-pyrrolidin-1-yl)-ethoxy]-3-methoxy-benzyl}-amino)-(3,4-dichloro-phenyl)-acetic acid]
12 | 786 | COc1cc(CN(CC(C)C)[C@@H](C(=O)O)c2ccc(Cl)c(Cl)c2)ccc1OCCN1C(=O)CCC1=O [Example 110, (R)-(3,4-Dichloro-phenyl)-({4-[2-(2,5-dioxo-pyrrolidin-1-yl)-ethoxy]-3-methoxy-benzyl}-isobutyl-amino)-acetic acid]
13 | 420 | COc1cc(CN(CC2CC2)[C@@H](C(=O)O)c2ccc(Cl)c(Cl)c2)ccc1OCCN1C(=O)CCC1=O [Example 111, (R)-(Cyclopropylmethyl-{4-[2-(2,5-dioxo-pyrrolidin-1-yl)-ethoxy]-3-methoxy-benzyl}-amino)-(3,4-dichloro-phenyl)-acetic acid]
14 | 30 | COc1cc(CN(CC2CC2)C(CC(=O)O)c2ccc(Cl)c(Cl)c2)ccc1OCCn1c(=O)ccn(C)c1=O (stereo not drawn) [Example 124, 3-(Cyclopropylmethyl-{3-methoxy-4-[2-(3-methyl-2,6-dioxo-3,6-dihydro-2H-pyrimidin-1-yl)-ethoxy]-benzyl}-amino)-3-(3,4-dichloro-phenyl)-propionic acid]
15 | 72 | CCCN(Cc1ccc(OCCn2c(=O)ccn(C)c2=O)c(OC)c1)C(CC(=O)O)c1ccc(Cl)c(Cl)c1 (stereo not drawn) [Example 125, 3-(3,4-Dichloro-phenyl)-3-({3-methoxy-4-[2-(3-methyl-2,6-dioxo-3,6-dihydro-2H-pyrimidin-1-yl)-ethoxy]-benzyl}-propyl-amino)-propionic acid]
16 | 310 | CCN(Cc1ccc(OCCn2c(=O)ccn(C)c2=O)c(OC)c1)C(CC(=O)O)c1ccc(Cl)c(Cl)c1 (stereo not drawn) [Example 126, 3-(3,4-Dichloro-phenyl)-3-(ethyl-{3-methoxy-4-[2-(3-methyl-2,6-dioxo-3,6-dihydro-2H-pyrimidin-1-yl)-ethoxy]-benzyl}-amino)-propionic acid]
17 | 38 | COc1cc(CN(CC2CCCC2)C(CC(=O)O)c2ccc3c(c2)CCO3)ccc1OCCn1c(=O)ccn(C)c1=O (stereo not drawn) [Example 127, 3-(Cyclopentylmethyl-{3-methoxy-4-[2-(3-methyl-2,6-dioxo-3,6-dihydro-2H-pyrimidin-1-yl)-ethoxy]-benzyl}-amino)-3-(2,3-dihydro-benzofuran-5-yl)-propionic acid]
18 | 118 | COc1cc(CN(CC2CCCCC2)C(CC(=O)O)c2ccc3c(c2)CCO3)ccc1OCCn1c(=O)ccn(C)c1=O (stereo not drawn) [Example 128, 3-(Cyclohexylmethyl-{3-methoxy-4-[2-(3-methyl-2,6-dioxo-3,6-dihydro-2H-pyrimidin-1-yl)-ethoxy]-benzyl}-amino)-3-(2,3-dihydro-benzofuran-5-yl)-propionic acid]
19 | 2150 | Cc1cc(CN(CCC(F)(F)F)C(CC(=O)O)c2ccc(Cl)cc2)ccc1OCCn1c(=O)ccn(C)c1=O (stereo not drawn) [Example 129, 3-(4-Chloro-phenyl)-3-[{3-methyl-4-[2-(3-methyl-2,6-dioxo-3,6-dihydro-2H-pyrimidin-1-yl)-ethoxy]-benzyl}-(3,3,3-trifluoro-propyl)-amino]-propionic acid]
20 | 1250 | COc1cc(CN(CCC(F)(F)F)C(CC(=O)O)c2ccc(Cl)cc2)ccc1OCCn1c(=O)ccn(C)c1=O (stereo not drawn) [Example 130, 3-(4-Chloro-phenyl)-3-[{3-methoxy-4-[2-(3-methyl-2,6-dioxo-3,6-dihydro-2H-pyrimidin-1-yl)-ethoxy]-benzyl}-(3,3,3-trifluoro-propyl)-amino]-propionic acid]
21 | 42 | Cc1cc(CN(CC2CC2)C(CC(=O)O)c2ccc3c(c2)CCO3)ccc1OCCn1c(=O)ccn(C)c1=O (stereo not drawn) [Example 131, 3-(Cyclopropylmethyl-{3-methyl-4-[2-(3-methyl-2,6-dioxo-3,6-dihydro-2H-pyrimidin-1-yl)-ethoxy]-benzyl}-amino)-3-(2,3-dihydro-benzofuran-5-yl)-propionic acid]
